Assay results taken from patent US11613515B2, “Neuro-attenuating ketamine and norketamine compounds, derivatives thereof, and methods” (Amorsa Therapeutics, Inc., priority 2014, dated 2023).
Counter-ions that a name gives are not always drawn.

Tests used:
NMDA receptor = assay: Patch clamp electrophysiological functional response, NMDA receptor inhibition; type: cell-based; conditions: cultural hippocampal rat neurons
[1] = estimated, background; cited from earlier work
[2] = fraction of ketamine activity; cited from earlier work
[3] = Metabolic stability in rat liver microsomes; conditions: NADPH regenerating system, 0 to 60 min
[4] = Pharmacokinetics of deuterated norketamines in rats (tail vein injection); conditions: 0.8 mg/kg, injection into the tail vein
Procedure: Pharmacokinetics of the deuterated norketamines is studied in rats. […] The terminal half-lives are calculated by fitting the data points using a WinNonLin software package.

[5] = cited from earlier work

For `CNC1(c2ccccc2Cl)CCCCC1=O` (racemic) [ketamine, (R,S)-2-(2-chlorophenyl)-2-(methylamino) cyclohexanone], the IC50 (NMDA receptor) is given as 2.2 µM and the elimination half-life [1] is given as 2 to 3 h.

In the case of `NC1(c2ccccc2Cl)CCCCC1=O` (racemic) [norketamine, (R,S)-2-(2-chlorophenyl)-2-(amino) cyclohexanone], the IC50 (NMDA receptor) is listed as 14.7 µM and the “activity as compared with ketamine” value [2] is listed as “roughly one third”.

With `[2H]C1([2H])CCCC(N)(c2ccccc2Cl)C1=O` (centres unmarked) [compound 11] the IC50 (NMDA receptor) was 25.9 µM, the “increase in half-life compared to non-deuterated norketamine” value [3] was “about 80%” and the “increase of terminal half-life vs norketamine” value [4] was about 40%.

For `CNC1(c2ccccc2Cl)CCCCC1=O` (centres unmarked) [ketamine hydrochloride], the solubility in water [5] is given as “about 200 mg/ml”.
